The text below walks through data of US10183946B2, “Triazolo[4,5-D]pyrimidines” (Hoffmann—La Roche Inc., priority 2014, dated 2019).

Read-outs that look alike come from different tables or passages of the source.

In one assay the target is human CB2 receptors (Homo sapiens (Human), UniProt P34972). Nature of the assay: cAMP assay, CHO cells expressing human CB2 receptors. To be noted: functional cAMP assay, read-out: CB2 hcAMP EC50. The format is cell-based. As to the method: (§1) CHO cells expressing human CB1 or CB2 receptors are seeded 17-24 hours prior to the experiment 50.000 cells per well in a black 96 well plate with flat clear bottom (Corning Costar #3904) in DMEM (Invitrogen No. 31331), 1×HT supplement, with 10% fetal calf serum and incubated at 5% CO2 and 37° C. in a humidified incubator. The growth medium was exchanged with Krebs Ringer Bicarbonate buffer with 1 mM IBMX and incubated at 30° C. for 30 min. Compounds were added to a final assay volume of 100 μl and incubated for 30 min at 30° C. Using the cAMP-Nano-TRF detection kit the assay (Roche Diagnostics) was stopped by the addition of 50 μl lysis reagent (Tris, NaCl, 1.5% Triton X100, 2.5% NP40, 10% NaN3) and 50 μl detection solutions (20 μM mAb Alexa700-cAMP 1:1, and 48 μM Ruthenium-2-AHA-cAMP) and shaken for 2 h at room temperature. The time-resolved energy transfer is measured by a TRF reader (Evotec Technologies GmbH), equipped with a ND:YAG laser as excitation source. The plate is measured twice with the excitation at 355 nm and at the emission with a delay of 100 ns and a gate of 100 ns, total exposure time 10 s at 730 (bandwidth 30 nm) or 645 nm (bandwidth 75 nm), respectively. The FRET signal is calculated as follows: FRET=T730-Alexa730-P(T645-B645) with P=Ru730-B730/Ru645-B645, where T730 is the test well measured at 730 nM, T645 is the test well measured at 645 nm, B730 and B645 are the buffer controls at 730 nm and 645 nm, respectively. cAMP content is determined from the function of a standard curve spanning from 10 μM to 0.13 nM cAMP.
(§2) EC50 values were determined using Activity Base analysis (ID Business Solution, Limited). The EC50 values for a wide range of cannabinoid agonists generated from this assay were in agreement with the values published in the scientific literature.
(Changes in cAMP serve as a functional read-out for many G protein-coupled receptors.)

A further assay addresses human CB1 receptors (Homo sapiens (Human), UniProt P21554). As to the kind of experiment: cAMP assay, CHO cells expressing human CB1 receptors. In kind it is cell-based. As to the method: as §1, §2
The mark [1] stands for this setting: functional cAMP assay, CHO cells expressing human CB1, read-out: CB1 hcAMP EC50.

Chain of human CB1 receptors (P21554 whole entry): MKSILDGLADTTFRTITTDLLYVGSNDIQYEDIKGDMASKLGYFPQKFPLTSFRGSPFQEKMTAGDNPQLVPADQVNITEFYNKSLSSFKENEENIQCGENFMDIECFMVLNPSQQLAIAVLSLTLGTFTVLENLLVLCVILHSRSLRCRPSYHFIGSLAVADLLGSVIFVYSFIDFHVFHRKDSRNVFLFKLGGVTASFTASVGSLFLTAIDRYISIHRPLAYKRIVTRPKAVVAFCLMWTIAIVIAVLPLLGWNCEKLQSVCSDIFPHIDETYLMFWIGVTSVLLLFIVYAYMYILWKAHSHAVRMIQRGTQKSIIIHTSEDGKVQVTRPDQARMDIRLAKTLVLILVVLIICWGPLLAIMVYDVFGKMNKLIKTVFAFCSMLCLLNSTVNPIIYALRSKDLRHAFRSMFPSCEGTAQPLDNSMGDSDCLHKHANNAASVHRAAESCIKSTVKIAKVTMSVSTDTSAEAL
Chain of human CB2 receptors (P34972 whole entry): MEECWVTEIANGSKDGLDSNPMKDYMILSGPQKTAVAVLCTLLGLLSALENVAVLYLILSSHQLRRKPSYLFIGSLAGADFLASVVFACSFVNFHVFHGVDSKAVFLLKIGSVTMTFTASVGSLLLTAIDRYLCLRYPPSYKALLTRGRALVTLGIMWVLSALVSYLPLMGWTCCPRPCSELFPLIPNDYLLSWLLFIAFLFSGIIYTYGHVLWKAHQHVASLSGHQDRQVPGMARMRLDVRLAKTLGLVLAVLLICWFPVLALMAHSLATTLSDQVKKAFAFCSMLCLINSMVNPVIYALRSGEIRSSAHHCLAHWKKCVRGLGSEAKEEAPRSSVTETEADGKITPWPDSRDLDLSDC

Broadly, the EC50 is the concentration needed to bring the measured effect to its halfway point. Consider `CC(C)(C)c1nc(C2(O)CCCCC2)c2nnn(Cc3ccccc3Cl)c2n1` [Example 35, 1-[5-tert-Butyl-3-[(2-chlorophenyl)methyl]triazolo[4,5-d]pyrimidin-7-yl]cyclohexanol], for which the values for the EC50 at human CB2 receptors and on human CB1 receptors (setting [1]) were 172 nM and over 10000 nM, respectively.

Take `CC(C)(C)c1nc(C2(O)CSC2)c2nnn(Cc3ccccc3Cl)c2n1` [Example 39, 3-[5-tert-Butyl-3-[(2-chlorophenyl)methyl]triazolo[4,5-d]pyrimidin-7-yl]thietan-3-ol]: the values for the half-maximal effective concentration (EC50) at human CB2 receptors and on human CB1 receptors (setting [1]) were 168 nM and over 10000 nM, respectively.

For the molecule `CC(C)(C)c1nc(C2(CF)CC2)c2nnn(Cc3ccccc3Cl)c2n1` [Example 43, 5-tert-Butyl-3-[(2-chlorophenyl)methyl]-7-[1-(fluoromethyl)cyclopropyl]triazolo[4,5-d]pyrimidine], the values for the concentration giving a half-maximal response (EC50) on human CB2 receptors and on human CB1 receptors (setting [1]) were 903 nM and over 10000 nM, respectively.

On to `Cn1nccc1-c1nc(C(C)(C)C)nc2c1nnn2Cc1ncccc1Cl` [Example 21, 5-tert-butyl-3-[(3-chloropyridin-2-yl)methyl]-7-(2-methylpyrazol-3-yl)triazolo[4,5-d]pyrimidine], for which the figures for the EC50 on human CB2 receptors and at human CB1 receptors (setting [1]) were 39.5 nM and over 10000 nM, respectively.

Take `CC(C)(C)c1nc(C2=CCCC2)c2nnn(Cc3ccccc3Cl)c2n1` [Example 44, 5-tert-Butyl-3-[(2-chlorophenyl)methyl]-7-(cyclopenten-1-yl)triazolo[4,5-d]pyrimidine]: the results for the half-maximal effective concentration (EC50) on human CB2 receptors and on human CB1 receptors (setting [1]) were 4 nM and over 10000 nM, respectively.

Consider `CC(C)(C)c1nc(-c2ccc(F)nc2)c2nnn(Cc3ccccc3Cl)c2n1` [Example 6, 5-tert-butyl-3-[(2-chlorophenyl)methyl]-7-(6-fluoropyridin-3-yl)triazolo[4,5-d]pyrimidine], for which the 50% effective concentration (EC50) at human CB2 receptors was 2.7 nM; at human CB1 receptors (setting [1]), over 10000 nM.

Turning to `CC(C)(C)c1nc(-c2ccc(F)cc2)c2nnn(Cc3ccccc3Cl)c2n1` [Example 2, 5-tert-butyl-3-[(2-chlorophenyl)methyl]-7-(4-fluorophenyl)triazolo[4,5-d]pyrimidine], the EC50 at human CB2 receptors is 28.5 nM; on human CB1 receptors (setting [1]) it was over 10000 nM.

As to `CC(C)(C)c1nc(C2(O)CCCCCCC2)c2nnn(Cc3ccccc3Cl)c2n1` [Example 37, 1-[5-tert-Butyl-3-[(2-chlorophenyl)methyl]triazolo[4,5-d]pyrimidin-7-yl]cyclooctanol], the half-maximal effective concentration (EC50) is 126 nM on human CB2 receptors and over 10000 nM on human CB1 receptors.

For `CC(C)(C)c1nc(C2CCCC2)c2nnn(Cc3ccccc3Cl)c2n1` [Example 45a, 5-tert-Butyl-3-[(2-chlorophenyl)methyl]-7-cyclopentyl-triazolo[4,5-d]pyrimidine], the concentration for a half-maximal effect (EC50) on human CB2 receptors is 94.4 nM; at human CB1 receptors (setting [1]), over 10000 nM.

With `Cn1nccc1-c1nc(C(C)(C)C)nc2c1nnn2Cc1ccccc1Cl` [Example 9, 5-tert-butyl-3-[(2-chlorophenyl)methyl]-7-(2-methylpyrazol-3-yl)triazolo[4,5-d]pyrimidine], the EC50 on human CB2 receptors is 44.3 nM; on human CB1 receptors (setting [1]), over 10000 nM.

Regarding `Cn1nnnc1Cn1nnc2c(-c3cn[nH]c3)nc(C(C)(C)C)nc21` [Example 25, 5-tert-butyl-3-[(1-methyltetrazol-5-yl)methyl]-7-(1H-pyrazol-4-yl)triazolo[4,5-d]pyrimidine], the 50% effective concentration (EC50) at human CB2 receptors is 32 nM; at human CB1 receptors (setting [1]), over 10000 nM.

For `Cc1nnc(Cn2nnc3c(-c4ccnn4C)nc(C(C)(C)C)nc32)o1` [Example 15, 2-[[5-tert-butyl-7-(2-methylpyrazol-3-yl)triazolo[4,5-d]pyrimidin-3-yl]methyl]-5-methyl-1,3,4-oxadiazole], the results for the 50% effective concentration (EC50) at human CB2 receptors and on human CB1 receptors (setting [1]) were 317 nM and over 10000 nM, respectively.

With `CC(C)(C)c1nc(-c2ccccc2F)c2nnn(Cc3ccccc3Cl)c2n1` [Example 4, 5-tert-butyl-3-[(2-chlorophenyl)methyl]-7-(2-fluorophenyl)triazolo[4,5-d]pyrimidine], the EC50 is 65.2 nM at human CB2 receptors and over 10000 nM on human CB1 receptors (setting [1]).

Consider `CC(C)(C)c1nc(C2CCCC2)c2nnn(Cc3ccccc3)c2n1` [Example 45b, 3-benzyl-5-tert-butyl-7-cyclopentyl-triazolo[4,5-d]pyrimidine], for which the EC50 on human CB2 receptors was 30 nM; on human CB1 receptors (setting [1]) it was over 10000 nM.

With `Cn1cc(-c2nc(C(C)(C)C)nc3c2nnn3Cc2ccccc2Cl)cn1` [Example 8, 5-tert-butyl-3-[(2-chlorophenyl)methyl]-7-(1-methylpyrazol-4-yl)triazolo[4,5-d]pyrimidine], the EC50 is 17.4 nM at human CB2 receptors and over 10000 nM at human CB1 receptors (setting [1]).

Regarding `Cn1nccc1-c1nc(C(C)(C)C)nc2c1nnn2C1COC1` [Example 19, 5-tert-butyl-7-(2-methylpyrazol-3-yl)-3-(oxetan-3-yl)triazolo[4,5-d]pyrimidine], the EC50 on human CB2 receptors was 190 nM; on human CB1 receptors (setting [1]), over 10000 nM.
